The target in data set [1] is Palmitoyltransferase ZDHHC7 (Homo sapiens, UniProt Q9NXF8). The data set can be described thus: Inhibition of ZDHHC7 (unknown origin).
For data set [2], the target named is Palmitoyltransferase ZDHHC3 (Homo sapiens, UniProt Q9NYG2). The experiment in a line: Inhibition of ZDHHC3 (unknown origin).
For data set [3], the target named is T1, Carnitine O-palmitoyltransferase 1, liver isoform (Homo sapiens, UniProt P50416).
T1 sequence (P50416 whole entry): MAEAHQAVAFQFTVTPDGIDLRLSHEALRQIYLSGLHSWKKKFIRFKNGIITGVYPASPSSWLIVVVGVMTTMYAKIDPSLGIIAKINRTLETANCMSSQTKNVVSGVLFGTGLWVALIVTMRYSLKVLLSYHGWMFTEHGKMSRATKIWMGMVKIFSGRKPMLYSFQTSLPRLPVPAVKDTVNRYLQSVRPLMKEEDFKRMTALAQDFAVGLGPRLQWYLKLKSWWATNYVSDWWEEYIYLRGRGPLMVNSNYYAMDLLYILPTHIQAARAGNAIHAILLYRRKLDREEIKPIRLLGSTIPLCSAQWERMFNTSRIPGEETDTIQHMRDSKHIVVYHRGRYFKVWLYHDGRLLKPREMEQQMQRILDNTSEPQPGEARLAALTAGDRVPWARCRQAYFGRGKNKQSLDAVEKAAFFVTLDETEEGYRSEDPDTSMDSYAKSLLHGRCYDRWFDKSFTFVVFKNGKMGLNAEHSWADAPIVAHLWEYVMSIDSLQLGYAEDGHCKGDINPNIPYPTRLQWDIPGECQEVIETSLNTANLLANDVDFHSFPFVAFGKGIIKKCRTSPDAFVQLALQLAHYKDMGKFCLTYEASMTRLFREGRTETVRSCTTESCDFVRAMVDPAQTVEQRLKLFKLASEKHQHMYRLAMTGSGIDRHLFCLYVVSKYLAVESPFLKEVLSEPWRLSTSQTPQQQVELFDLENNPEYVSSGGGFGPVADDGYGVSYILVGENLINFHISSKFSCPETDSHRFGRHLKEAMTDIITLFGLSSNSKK
The data set can be described thus: Inhibition of CPT1A (unknown origin).

Data set [4] addresses T2, Carnitine O-palmitoyltransferase 1, muscle isoform (Homo sapiens, UniProt Q92523).
T2 sequence (Q92523 whole entry): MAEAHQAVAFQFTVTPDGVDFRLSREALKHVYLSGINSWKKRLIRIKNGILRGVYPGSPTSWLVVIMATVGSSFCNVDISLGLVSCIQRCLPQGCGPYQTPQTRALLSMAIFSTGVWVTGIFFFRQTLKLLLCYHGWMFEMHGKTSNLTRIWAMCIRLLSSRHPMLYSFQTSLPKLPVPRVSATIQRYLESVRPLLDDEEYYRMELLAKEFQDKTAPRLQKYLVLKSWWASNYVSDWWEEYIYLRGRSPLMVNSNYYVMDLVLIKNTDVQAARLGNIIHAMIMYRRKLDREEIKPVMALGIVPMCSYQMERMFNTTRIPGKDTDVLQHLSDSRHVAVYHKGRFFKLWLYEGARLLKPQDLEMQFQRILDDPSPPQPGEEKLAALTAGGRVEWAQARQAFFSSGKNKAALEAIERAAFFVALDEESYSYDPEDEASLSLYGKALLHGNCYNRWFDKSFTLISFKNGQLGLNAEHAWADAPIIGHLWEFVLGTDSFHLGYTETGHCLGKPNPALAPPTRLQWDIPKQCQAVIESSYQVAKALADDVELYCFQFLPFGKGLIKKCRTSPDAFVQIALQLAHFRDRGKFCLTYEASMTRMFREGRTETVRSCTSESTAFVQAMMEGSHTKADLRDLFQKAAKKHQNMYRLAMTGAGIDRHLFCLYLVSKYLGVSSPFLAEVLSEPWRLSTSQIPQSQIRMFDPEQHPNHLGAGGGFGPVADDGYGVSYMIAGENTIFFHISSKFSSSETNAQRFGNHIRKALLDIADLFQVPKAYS
The experiment in a line: Inhibition of CPT1B (unknown origin).

Data set [5] relates to LN-18. The experiment in a line: Antitumor activity against human LN-18 cells assessed as reduction in cell growth incubated for 72 hrs in presence of sirtuins inhibitor by crystal violet staining based analysis. Type of data set: functional. Particulars: LN-18, 72 h.
Data set [6] addresses Palmitoyltransferase ZDHHC9 (Homo sapiens, UniProt Q9Y397). The experiment in a line: Binding affinity to ZDHHC9 (unknown origin) assessed as inhibition constant.
Data set [7] concerns the target T3, Transcriptional enhancer factor TEF-1 (Homo sapiens, UniProt P28347). The experiment in a line: Inhibition of N-terminal His-tagged human TEAD1 expressed in Escherichia coli BL21 (DE3) (209 to 424 residues) by affinity chromatography analysis.
Data set [8] relates to NCI-H226. The experiment in a line: Antitumor activity against human NCI-H226 cells xenografted in CDX mouse model assessed as reduction in tumor growth at 75 mg/kg relative to control. Type of data set: functional. Also on record: scale not given: the % may be the effect or the level left.
Data set [9] has as its system NCI-H226. The experiment in a line: Antitumor activity against human NCI-H226 cells xenografted in CDX mouse model assessed as reduction in tumor growth at 30 mg/kg relative to control. Type of data set: functional. Also on record: scale not given: the % may be the effect or the level left.
The subject of data set [10] is HCC4006. The data set can be described thus: cells. Conditions: Homo sapiens, HCC4006, 24 h.
The nature of data set [11]: Inhibition of N-terminal 6His-tagged human TEAD1 YAP-binding domain (219 to 435 residues) expressed in Escherichia coli BL21 (DE3).
Data set [12] deals with MCF7. The experiment in a line: Antiproliferative activity against human MCF7 cells assessed as reduction in cell growth measured after 72 hrs by MTT assay. Type of data set: functional, cell-based. Conditions: MCF7, 72 h.
For data set [13], the species on record is Homo sapiens. The data set can be described thus: Inhibition of ZDHHC (unknown origin) at 20 uM relative to control.
The target of data set [14] is T2, Carnitine O-palmitoyltransferase 1, muscle isoform. The experiment in a line: Inhibition of CPT1B (unknown origin) in KB cells. Type of data set: cell-based.
The target of data set [15] is T4, Carnitine O-palmitoyltransferase 1, liver isoform (Rattus norvegicus, UniProt P32198).
T4 sequence (P32198 whole entry): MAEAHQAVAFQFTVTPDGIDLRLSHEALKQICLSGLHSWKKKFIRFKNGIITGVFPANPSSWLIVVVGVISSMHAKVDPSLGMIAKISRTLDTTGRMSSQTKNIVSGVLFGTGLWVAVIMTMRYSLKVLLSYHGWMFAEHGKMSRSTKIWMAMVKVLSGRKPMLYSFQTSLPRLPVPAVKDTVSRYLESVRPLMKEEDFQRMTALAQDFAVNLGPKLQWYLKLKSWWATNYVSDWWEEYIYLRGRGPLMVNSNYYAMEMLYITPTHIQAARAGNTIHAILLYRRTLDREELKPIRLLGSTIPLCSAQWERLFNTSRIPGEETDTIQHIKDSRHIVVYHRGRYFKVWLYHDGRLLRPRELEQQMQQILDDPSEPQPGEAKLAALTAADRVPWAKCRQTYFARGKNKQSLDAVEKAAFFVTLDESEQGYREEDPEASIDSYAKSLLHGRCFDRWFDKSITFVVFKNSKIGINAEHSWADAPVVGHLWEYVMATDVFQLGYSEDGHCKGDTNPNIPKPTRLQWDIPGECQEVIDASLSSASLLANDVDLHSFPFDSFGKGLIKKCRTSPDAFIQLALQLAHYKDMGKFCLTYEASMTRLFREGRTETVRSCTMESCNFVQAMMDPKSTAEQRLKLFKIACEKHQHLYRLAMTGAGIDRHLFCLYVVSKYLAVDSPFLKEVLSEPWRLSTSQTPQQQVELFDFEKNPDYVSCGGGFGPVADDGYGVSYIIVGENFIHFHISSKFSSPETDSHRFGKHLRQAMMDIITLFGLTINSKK
The data set can be described thus: Inhibition of rat hepatocytes CPT1A. It is filed as cell-based, Hepatocyte.

Data set [16] addresses Non-structural protein 4b (Hepacivirus hominis, UniProt F5B4I0). The data set can be described thus: Inhibition of Hepatitis C virus genotype 1a NS4B.
Data set [17] deals with T3, Transcriptional enhancer factor TEF-1. The experiment in a line: Inhibition of N-terminal 6His-tagged human TEAD1 YAP-binding domain (209 to 426 residues) expressed in Escherichia coli BL21 (DE3).
The nature of data set [18]: Half life in mouse by LC-MS/MS analysis. It is filed as ADME. Particulars: in vivo, route po.
Data set [19] has as its target T1, Carnitine O-palmitoyltransferase 1, liver isoform. The data set can be described thus: Inhibition of human CPT1.
Data set [20] concerns the target Carnitine O-palmitoyltransferase 2, mitochondrial (Homo sapiens, UniProt P23786). The experiment in a line: Inhibition of human CPT2.
For data set [21], the target named is Carnitine O-palmitoyltransferase 2, mitochondrial (Rattus norvegicus, UniProt P18886). The data set can be described thus: Inhibition of rat CPT2.

Counter-ions that a name gives are not always drawn.

T3 sequence (P28347 whole entry, the tested form may be a part): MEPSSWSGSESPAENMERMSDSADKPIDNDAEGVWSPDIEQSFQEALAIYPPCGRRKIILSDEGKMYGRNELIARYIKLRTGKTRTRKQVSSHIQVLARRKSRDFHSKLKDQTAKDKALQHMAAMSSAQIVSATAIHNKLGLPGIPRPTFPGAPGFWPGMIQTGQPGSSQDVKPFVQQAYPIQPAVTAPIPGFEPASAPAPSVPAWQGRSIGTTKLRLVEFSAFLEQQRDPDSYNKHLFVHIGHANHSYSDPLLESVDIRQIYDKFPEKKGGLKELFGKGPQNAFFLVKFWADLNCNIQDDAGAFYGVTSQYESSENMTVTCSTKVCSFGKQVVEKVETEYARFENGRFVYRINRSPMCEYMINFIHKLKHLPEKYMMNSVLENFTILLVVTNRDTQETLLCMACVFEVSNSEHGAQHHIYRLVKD
Chain of Carnitine O-palmitoyltransferase 2, mitochondrial (Rattus norvegicus, UniProt P18886) (P18886 whole entry): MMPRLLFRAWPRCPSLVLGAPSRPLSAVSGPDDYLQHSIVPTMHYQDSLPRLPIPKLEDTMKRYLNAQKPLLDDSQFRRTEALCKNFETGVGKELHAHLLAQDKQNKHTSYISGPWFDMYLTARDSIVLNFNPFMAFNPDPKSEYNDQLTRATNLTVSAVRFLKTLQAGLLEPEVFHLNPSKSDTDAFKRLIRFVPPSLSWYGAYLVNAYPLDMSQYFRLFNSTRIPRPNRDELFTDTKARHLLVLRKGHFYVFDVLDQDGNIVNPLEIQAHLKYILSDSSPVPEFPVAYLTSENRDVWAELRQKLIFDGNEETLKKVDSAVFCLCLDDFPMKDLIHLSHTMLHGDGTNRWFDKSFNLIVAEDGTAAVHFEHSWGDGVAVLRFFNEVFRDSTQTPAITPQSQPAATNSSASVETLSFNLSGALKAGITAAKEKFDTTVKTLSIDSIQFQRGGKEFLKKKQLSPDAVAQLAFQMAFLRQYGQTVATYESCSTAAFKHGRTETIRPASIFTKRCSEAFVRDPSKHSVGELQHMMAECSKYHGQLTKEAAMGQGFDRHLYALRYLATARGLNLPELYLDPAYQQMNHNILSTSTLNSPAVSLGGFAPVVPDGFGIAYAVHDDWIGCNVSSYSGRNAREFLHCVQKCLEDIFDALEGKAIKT
Chain of Non-structural protein 4b (F5B4I0 whole entry, the tested form may be a part): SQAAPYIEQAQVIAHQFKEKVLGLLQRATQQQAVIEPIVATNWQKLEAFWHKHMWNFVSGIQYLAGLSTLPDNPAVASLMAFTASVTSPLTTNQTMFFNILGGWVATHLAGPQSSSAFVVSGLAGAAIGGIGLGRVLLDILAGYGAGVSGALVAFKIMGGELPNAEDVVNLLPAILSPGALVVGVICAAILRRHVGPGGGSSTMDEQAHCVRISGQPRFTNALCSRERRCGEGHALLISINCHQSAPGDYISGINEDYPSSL
Chain of Palmitoyltransferase ZDHHC3 (Q9NYG2 whole entry, canonical isoform): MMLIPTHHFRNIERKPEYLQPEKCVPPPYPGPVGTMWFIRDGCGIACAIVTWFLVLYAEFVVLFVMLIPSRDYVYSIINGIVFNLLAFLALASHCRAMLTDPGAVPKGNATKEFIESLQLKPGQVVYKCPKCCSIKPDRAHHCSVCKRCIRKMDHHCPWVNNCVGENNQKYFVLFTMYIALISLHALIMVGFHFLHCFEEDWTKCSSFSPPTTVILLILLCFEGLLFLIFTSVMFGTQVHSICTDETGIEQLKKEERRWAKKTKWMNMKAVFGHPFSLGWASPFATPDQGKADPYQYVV
Chain of Palmitoyltransferase ZDHHC9 (Q9Y397 whole entry, the tested form may be a part): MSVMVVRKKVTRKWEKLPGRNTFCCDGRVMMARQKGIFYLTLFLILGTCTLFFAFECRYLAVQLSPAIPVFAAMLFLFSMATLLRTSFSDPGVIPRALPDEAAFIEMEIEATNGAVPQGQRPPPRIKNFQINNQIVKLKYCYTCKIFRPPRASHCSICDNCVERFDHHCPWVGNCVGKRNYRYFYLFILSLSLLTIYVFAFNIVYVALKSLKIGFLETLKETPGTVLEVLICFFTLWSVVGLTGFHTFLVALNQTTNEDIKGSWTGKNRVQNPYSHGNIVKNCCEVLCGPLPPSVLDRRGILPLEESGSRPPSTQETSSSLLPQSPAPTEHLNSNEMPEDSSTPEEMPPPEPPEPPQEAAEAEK
Chain of Carnitine O-palmitoyltransferase 2, mitochondrial (Homo sapiens, UniProt P23786) (P23786 whole entry): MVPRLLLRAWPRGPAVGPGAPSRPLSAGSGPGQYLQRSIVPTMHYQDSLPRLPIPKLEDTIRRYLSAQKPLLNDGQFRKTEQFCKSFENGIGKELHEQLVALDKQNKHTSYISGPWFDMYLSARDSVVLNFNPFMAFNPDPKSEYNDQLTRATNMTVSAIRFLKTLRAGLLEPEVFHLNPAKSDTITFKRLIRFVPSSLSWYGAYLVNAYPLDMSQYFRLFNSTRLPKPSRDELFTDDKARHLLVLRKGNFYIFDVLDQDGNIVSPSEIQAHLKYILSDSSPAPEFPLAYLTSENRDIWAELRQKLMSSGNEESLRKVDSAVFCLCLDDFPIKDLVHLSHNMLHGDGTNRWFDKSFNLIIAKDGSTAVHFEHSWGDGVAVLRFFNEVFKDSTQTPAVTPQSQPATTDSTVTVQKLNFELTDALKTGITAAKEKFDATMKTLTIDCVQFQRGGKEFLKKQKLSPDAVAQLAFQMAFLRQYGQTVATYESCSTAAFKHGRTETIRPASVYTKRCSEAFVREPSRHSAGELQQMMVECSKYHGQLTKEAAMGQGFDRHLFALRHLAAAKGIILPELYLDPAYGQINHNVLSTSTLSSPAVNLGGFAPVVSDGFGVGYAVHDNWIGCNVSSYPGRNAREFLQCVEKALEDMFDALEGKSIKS
Chain of Palmitoyltransferase ZDHHC7 (Q9NXF8 whole entry): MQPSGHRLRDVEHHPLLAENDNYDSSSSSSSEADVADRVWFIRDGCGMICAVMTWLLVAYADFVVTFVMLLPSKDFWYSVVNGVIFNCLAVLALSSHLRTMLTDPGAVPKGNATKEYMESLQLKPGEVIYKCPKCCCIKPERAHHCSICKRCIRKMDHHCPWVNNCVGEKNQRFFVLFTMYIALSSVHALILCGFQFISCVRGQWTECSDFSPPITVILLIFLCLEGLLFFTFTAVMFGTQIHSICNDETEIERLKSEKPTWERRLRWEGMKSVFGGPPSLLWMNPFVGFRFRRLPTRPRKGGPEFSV

Regarding `CCCCCCCCCCCCCCC(Br)C(=O)SCCNC(C)=O` (stereo not given), the IC50 is 4.4 µM in data set [1] and around 50 µM in data set [2].
As to `CCCCCCOc1cccc(OCCCCNC(=O)N[C@H](CC(=O)[O-])C[N+](C)(C)C)c1`, the IC50 in data set [3] was 0.13 µM; in data set [4], 5.44 µM.
`CC(C)(C)NC1CCN(c2cc(NCc3ccc(Cl)cc3)nc3ccccc23)CC1` [EZURPIMTROSTAT]: the IC50 in [5] was found to be 0.22 µM.
Consider `CC(C)Cc1ccc(C(C)CN2CCNC[C@@H]2CCCCN2CCN(CC(C)c3ccc(CC(C)C)cc3)[C@@H](Cc3ccc(O)cc3)C2)cc1` (stereo not given in full), for which the Ki in data set [6] came to 72 µM.
On to `C=C(F)C(=O)N1C[C@@H](Nc2ncccn2)[C@H](OCc2ccc(C(F)(F)F)cc2)C1`, for which the IC50 in data set [7] turned out to be 0.011 µM. Also, the results for the Activity in data set [8] and in [9] were 68% and 54%, respectively.
For `COc1cc(C(=O)N2CC[C@H](NC(=O)c3ccccc3OC(F)(F)F)c3c2cnn3C(C)C)cnc1OC`, 0.0039 µM corresponded to half-maximal inhibition in [10] (IC50).
Consider `C=CC(=O)N1CCCN(CCCOCc2ccccc2)C1`, for which the IC50 in data set [11] worked out at 0.16 µM.
For the compound `C=CC(=O)NCc1ccc(OC(=O)c2cccc(Oc3ccccc3)c2)cc1`, in [12], the IC50 worked out at 50 µM. The compound further returned an inhibition in data set [13] of 89.5%.
`Cn1nc(C(F)(F)F)cc1C(=O)N[C@@H]1CCN(C(=O)c2cc(Cl)c3nccnc3c2)C[C@@H]1c1ccccc1` showed an IC50 in data set [10] of 0.011 µM.
For `COc1ccc(Cl)cc1S(=O)(=O)N1CCc2ccc(C(=O)Nc3ccc(C(=O)O)cc3)cc21`, the figures for the IC50 in data set [14] and in data set [15] were 0.021 µM and 1.09 µM, respectively.
Regarding `CC#CCOc1ccc(C[C@H](NC(=O)[C@@H](/C=C/CCCCCCC(=O)CCCCCCC)[C@@](O)(CC(C)=O)C(=O)O)C(=O)O)cc1`, the IC50 in [16] stood at 0.0189 µM.
As to `C=CC(=O)N1CCC(CCOc2ccccc2)CC1`, the IC50 was 0.58 µM in data set [11] and 0.61 µM in data set [17].
In data set [18], `CNS(=O)(=O)c1ccc(Nc2ccc(C(F)(F)F)cc2)c(-c2cn(C)cn2)c1` gave a half-life of 13.2 h.
On to `COc1cccc2c1C(=O)c1c(O)c3c(c(O)c1C2=O)C[C@@](O)(C(=O)CO)C[C@@H]3O[C@H]1C[C@H](N)[C@H](O)[C@H](C)O1` [DOXORUBICIN HYDROCHLORIDE], for which the IC50 in data set [19] was 250 µM; in data set [20], above 100 µM.
Regarding `COc1ccc(Cl)cc1S(=O)(=O)N1CC(C(=O)O)Oc2ccc(C(=O)Nc3cccc(F)c3)cc21` (stereo not given), the IC50 in data set [14] was determined as 0.016 µM; in [15] it was 1.34 µM.
In the case of `C1CCC(C(CC2CCCCN2)C2CCCCC2)CC1` (stereo not given) [PERHEXILINE], it took 77 µM to reach half-maximal inhibition in data set [21] (IC50).

Values taken from ChEMBL document CHEMBL5523703, “Modulators for palmitoylation of proteins and small molecules” (Eur J Med Chem, 2024).
